This is an account of results in publication PMC5308787, “Isoprenoid-phospholipid conjugates as potential therapeutic agents: Synthesis, characterization and antiproliferative studies” (PLoS ONE, 2017).

Test [1] has as its system LoVo/DX (colon cancer drug resistant). The experiment in a line: Antiproliferative SRB assay, 72 h exposure. The class given is cell-based, human. The following applies: mean ± SD of 3–5 experiments, n.a. = no activity in concentration of 5, 25, 125, 625 μM. Here is the method:
(§1) The biological studies were performed in vitro using human cancer cell lines: MV4-11 (human biphenotypic B myelomonocytic leukaemia), A-549 (non-small cell lung cancer), MCF-7 (breast cancer), LoVo (colon cancer), LoVo/DX (colon cancer drug resistant), HepG2 (liver cancer) and BALB/3T3 (normal mice fibroblasts). These lines were obtained from American Type Culture Collection (Rockville, Maryland, U.S.A.). The cell line is being maintained in the Institute of Immunology and Experimental Therapy, Wroclaw, Poland. All cell lines were grown at 37°C with 5% CO2 humidified atmosphere and were cultured in cultured medium according to the method described before.
(§2) Prior to usage, the compounds were dissolved in DMSO or in mixture of 99.8% ethanol and DMSO (1:1) to the concentration of 25 or 50 mM, and subsequently diluted in culture medium to reach the required concentrations (ranging from 5 to 625 μM).
(§3) Twenty-four hours prior to the addition of tested compounds, the cells were plated in 96-well plates (Sarstedt, Germany) at a density of 1 × 10^4 cells per well in 100 μL of culture medium. The assay was performed after 72 h of exposure to varying concentrations of the tested agents. The in vitro cytotoxic effect of tested agents was examined using the MTT (for MV4-11 cells) or SRB assay which were described previously. Each compound in each concentration was tested in triplicate in a single experiment, which was repeated 3–5 times.
(§4) The results of antiproliferative activity were given as IC50 values. Using this parameter we calculated also the resistance indexes (RI) dividing the IC50 values of selected compounds estimated for drug resistant cell LOVO/DX line by respective values designated for drug sensitive LoVo line. According to Harker et al. three categories of the cells could be distinguished: (a) the cells are drug-sensitive—if the ratio approaches 0–2; (b) the cells are moderately drug-resistant—if the ratio ranges from 2 to 10; (c) the cells are markedly drug-resistant—if the ratio is higher than 10.
On the technique in general: In SRB staining, fixed cells bind dye roughly in proportion to their protein.

For the next test, the system named is HepG2 (liver cancer). In words: Antiproliferative SRB assay, 72 h exposure. It counts as cell-based, human. The following applies: n.a. = no activity in concentration of 5, 25, 125, 625 μM. Here is the method: as §1, §2, §3, §4
Test [2] deals with A-549 (non-small cell lung cancer). In words: Antiproliferative SRB assay, 72 h exposure. The class given is cell-based, human. The following applies: n.a. = no activity in concentration of 5, 25, 125, 625 μM. As for the experimental part:
as §1, §2, §3, §4

The test system of another test is MCF-7 (breast cancer). The experiment in a line: Antiproliferative SRB assay, 72 h exposure. The following applies: n.a. = no activity in concentration of 5, 25, 125, 625 μM. The class given is cell-based, human. Here is the method:
as §1, §2, §3, §4

For a further test, the system named is LoVo (colon cancer). The experiment in a line: Antiproliferative SRB assay, 72 h exposure. It counts as cell-based, human. The following applies: SRB, 72 h, mean ± SD of 3–5 experiments, n.a. = no activity in concentration of 5, 25, 125, 625 μM. As for the experimental part:
as §1, §2, §3, §4

For test [3], the system named is drug resistant LOVO/DX line vs drug sensitive LoVo line. The experiment in a line: Resistance index (RI): IC50 LOVO/DX divided by IC50 LoVo. The class given is cell-based, human. The following applies: RI = IC50 resistant line / IC50 non-resistant line; 0<RI<2 able to overcome drug resistance; 2<RI<10 moderate ability; RI>10 no influence.
Description: as §4

Test [4] has as its system MV4-11 (human biphenotypic B myelomonocytic leukaemia). In words: Antiproliferative MTT assay, 72 h exposure. It counts as cell-based. As for the experimental part: as §1, §2, §3, §4
A general note: Tetrazolium assays rely on reduction of a dye to a coloured formazan, in cell work by metabolically active cells.

Test [5] concerns BALB/3T3 (normal mice fibroblasts). In words: Antiproliferative SRB assay, 72 h exposure. The following applies: n.a. = no activity in concentration of 5, 25, 125, 625 μM. It counts as cell-based. As for the experimental part:
as §1, §2, §3, §4

[6] abbreviates: Homo sapiens, HepG2, mean ± SD of 3–5 experiments.
Setting [7] is: Homo sapiens, A549, mean ± SD of 3–5 experiments.
Where [8] appears, read: Homo sapiens, MCF7, mean ± SD of 3–5 experiments.
Where [9] appears, read: Homo sapiens, MV4-11, mean ± SD of 3–5 independent experiments.
[10] abbreviates: Mus musculus, BALB/3T3, mean ± SD of 3–5 experiments.

In the case of `C=CC(C)(CCC=C(C)C)CC(=O)O` (centres unmarked) [1 (GERA), 3,7-dimethyl-3-vinyloct-6-enoic acid], the 50% inhibitory concentration (IC50) – broadly, the concentration that gives 50% inhibition – in test [1] (Homo sapiens, LoVo/DX) is 281 ± 13.6 µM; in the test with HepG2 (liver cancer) (setting [6]), 517 ± 98.3 µM; in test [2] (setting [7]) it was 301 ± 66.9 µM; in the test with MCF-7 (breast cancer) (setting [8]), 310 ± 84 µM; with LoVo (colon cancer) (Homo sapiens, LoVo) it was 329 ± 54.5 µM; in test [4] (setting [9]) it was 256 ± 86.1 µM. Further, the “Resistance index (RI)” value in test [3] was 0.85.
Consider `C=CC(C)(CC/C=C(\C)CCC=C(C)C)CC(=O)O` (centres unmarked) [2 (FARA), (E)-3,7,11-trimethyl-3-vinyldodeca-6,10-dienoic acid], for which the IC50 is 87 ± 14.4 µM in test [1] (Homo sapiens, LoVo/DX); 267 ± 15.5 µM in the test with HepG2 (liver cancer) (setting [6]); 91 ± 11.5 µM in test [2] (setting [7]); 162 ± 5.9 µM in the test with MCF-7 (breast cancer) (setting [8]); 99.2 ± 26 µM in the test with LoVo (colon cancer) (Homo sapiens, LoVo); 153 ± 20.1 µM in test [4] (setting [9]). Moreover, in test [5] (setting [10]), the IC50 turned out to be 230 ± 40.3 µM. Also, in test [3], the “Resistance index (RI)” value turned out to be 0.88.
As to `CCCC=C1C(C)(C)CCCC1(C)CC(=O)O` (centres unmarked) [3 (DAA), 2-(2-butylidene-1,3,3-trimethylcyclohexyl)-acetic acid], the IC50 in test [1] (Homo sapiens, LoVo/DX) was determined as 109 ± 16 µM; in the test with HepG2 (liver cancer) (setting [6]), 274 ± 12 µM; in test [2] (setting [7]), 150 ± 16.8 µM; in the test on MCF-7 (breast cancer) (setting [8]), 231 ± 43.2 µM; with LoVo (colon cancer) (Homo sapiens, LoVo), 173 ± 38.7 µM; in test [4] (setting [9]), 132 ± 52.7 µM. The IC50 in test [5] (setting [10]) is 297 ± 14.4 µM. In addition, the “Resistance index (RI)” value in test [3] came to 0.63.
Compound `C=CC(C)(CCCC(C)CCCC(C)CCCC(C)C)CC(=O)O` (centres unmarked) [4 (PHYTA), 3,7,11,15-Tetramethyl-3-vinylhexadecanoic acid] showed a half-inhibitory concentration (IC50) in test [4] (setting [9]) of 39.3 ± 5.85 µM.
`N.N.[Cl][Pt][Cl]` [Cisplatin, cisplatin, reference compound]: the IC50 worked out at 3.17 ± 0.2 µM in test [1]; 2.38 ± 0.64 µM with HepG2 (liver cancer) (mean ± SD of 3–5 experiments); 8.6 ± 0.7 µM in test [2] (mean ± SD of 3–5 experiments); 8.1 ± 0.03 µM in the test on MCF-7 (breast cancer) (mean ± SD of 3–5 experiments); 2.56 ± 0.35 µM in the test on LoVo (colon cancer); 1.3 ± 0.47 µM in test [4] (mean ± SD of 3–5 independent experiments). Further, in test [5] (mean ± SD of 3–5 experiments), 4.2 ± 1.1 µM corresponded to half-maximal inhibition (IC50).
For `C=CC(C)(CCC=C(C)C)CC(=O)OC[C@H](COP(=O)([O-])OCC[N+](C)(C)C)OC(=O)CC(C)(C=C)CCC=C(C)C` (some centres unmarked) [Compound 6a], the IC50 is 245 ± 19.7 µM in test [1] (Homo sapiens, LoVo/DX); 286.4 ± 1.3 µM in the test on HepG2 (liver cancer) (setting [6]); 263 ± 19.7 µM in test [2] (setting [7]); 209 ± 12.9 µM with MCF-7 (breast cancer) (setting [8]); 230 ± 6.9 µM in the test on LoVo (colon cancer) (Homo sapiens, LoVo); 50.1 ± 3.5 µM in test [4] (setting [9]). Moreover, it took 280 ± 8.2 µM to reach half-maximal inhibition in test [5] (setting [10]) (IC50).
Take `CCC/C=C1/C(C)(C)CCCC1(C)CC(=O)OC[C@H](COP(=O)([O-])OCC[N+](C)(C)C)OC(=O)CC1(C)CCCC(C)(C)/C1=C/CCC` (stereo partly drawn) [Compound 6c, (2’R)-1’,2’-di{2-[(3R,2"E)-2"-butylidene-1",3",3"-trimethyl]cyclohexyl}acetyl-sn-glycero-3’-phospocholine + (2’R)-1’,2’-di{2-[(3S,2"E)-2"-butylidene-1",3",3"-trimethyl]cyclohexyl}acetyl-sn-glycero-3’-phospocholine]: the 50% inhibitory concentration (IC50) in test [1] (Homo sapiens, LoVo/DX) came out at 56.9 ± 0.2 µM; with HepG2 (liver cancer) (setting [6]) it was 56.7 ± 0.1 µM; in test [2] (setting [7]), 52.3 ± 1.9 µM; with MCF-7 (breast cancer) (setting [8]) it was 57.8 ± 2.6 µM; in the test on LoVo (colon cancer) (Homo sapiens, LoVo) it was 53.1 ± 3.6 µM; in test [4] (setting [9]) it was 38.6 ± 11.1 µM. In test [5] (setting [10]), this compound showed a 50% inhibitory concentration (IC50) of 57.3 ± 0.3 µM.
Compound `C=CC(C)(CCCC(C)CCCC(C)CCCC(C)C)CC(=O)OC[C@H](COP(=O)([O-])OCC[N+](C)(C)C)OC(=O)CC(C)(C=C)CCCC(C)CCCC(C)CCCC(C)C` (some centres unmarked) [Compound 6d] showed a half-inhibitory concentration (IC50) in test [4] (setting [9]) of 42.4 ± 9.52 µM.
The same measure, in the same setting: under `C=CC(C)(CCCC(C)CCCC(C)CCCC(C)C)CC(=O)O[C@H](COC(=O)CCCCCCCCCCCCCCC)COP(=O)([O-])OCC[N+](C)(C)C` (some centres unmarked) [Compound 7d] stands 259 ± 32.5 µM.
